Reference: patent US9187470B2, “Anti-mucus drugs and uses therefor” (Washington University, priority 2012, dated 2015)
Like-named read-outs stand apart in the source and are kept apart here.

Tests used:
[1] = target: T1, MAPK13 (Homo sapiens (Human), UniProt O15264); assay: MAPK inhibitor assay: immobilized metal affinity polarization (IMAP) assay with activated MAPK13; type: biochemical; settings: for MAPK13 inhibitory activity (in words): IMAP assay, FIG. 6f
Protocol: MAPK inhibitor assay. The MAPK13 blocking activity of test compounds was determined using an immobilized metal affinity polarization (IMAP) assay containing activated MAPK13, FITC-labeled substrate, and test compound. Full-length 6-His-tagged MAPK13 and constitutively active GST-MKK6 were prepared as described below. Activated MAPK13 was generated in 50 mM Hepes, 10 mM MgCl2 and 1 mM DTT, containing 1 μM MAPK13, 2 μM MKK6 and 50 μM ATP for 1 h at 25° C. MKK6 was removed by incubation with glutathione SEPHAROSE 4B beads (GE Healthcare Biosciences). […] IMAP assays were performed in 96-well non-treated half-area black plates or 384-well black plates (Corning Inc., Corning, N.Y.) in a final reaction volume of 20 μl using the linear phase of the rate kinetics. […] The reaction proceeded for 20 min at 25° C. in 10 mM Tris-HCl, 10 mM MgCl2, 0.1% BSA, 0.05% NaN3, 1 mM DT, pH 7.2 after which 60 μl of tri-valent metal nanoparticles containing IMAP binding reagent (Molecular Devices, Sunnyvale, Calif.) was added for 80 min at 25° C. The IMAP binding reagent was optimized at 1:600 (vol/vol) based on the number of acidic residues in the peptide substrate. Fluorescence polarization was measured with a Biotek Synergy 4 multimode plate reader (Biotek, Winooski, Vt.) with excitation at 485 nm and emission at 528 nm. The IC50 values for each compound were determined from the compound concentration versus fluorescence polarization (mP) plot using nonlinear curve fitting with GraphPad Prism software (Graphpad Software, La Jolla, Calif.).
MAPK purification for biochemical assays and crystallization. Full-length human MAPK13 (1-365) and MAPK13 crystallization construct (1-352) were cloned into pET28a as N-terminal 6-His-tagged constructs. […] A pET28a construct of λ-phosphatase was a gift from Dima Klenchin (University of Wisconsin, Madison, Wis.). All constructs were confirmed by sequencing and transformed into Rosetta2 (DE3) E. coli (EMD Millipore, Billerica, Mass.) and expressed as soluble proteins that were purified using the specific affinity tags followed by gel filtration chromatography. […] The final purified MAPK13 for crystallization was stored in buffer containing 20 mM Hepes pH 7.5, 150 mM NaCl, 10% glycerol, and 1 mM DTT.
In concert with this structural analysis, analogs for MAPK13 inhibitory activity were tested using an immobilized metal affinity polarization (IMAP) assay that detected fluorescence polarization as a function of remaining MAPK13 activity.

[2] = system: MUC5AC; assay: IL-13-induced MUC5AC production in primary-culture human tracheal epithelial cells (qPCR, cell-based ELISA); settings: for IL-13-induced MUC5AC production: FIG. 6h
[3] = target: T1, MAPK13; assay: MAPK13/small molecule binding assay (bio-layer interferometry, Octet); settings: for t1/2: complex half-life determined using BLI; for slow-off binding kinetics: FIG. 6d,e
Excerpt: MAPK purification for biochemical assays and crystallization. Full-length human MAPK13 (1-365) and MAPK13 crystallization construct (1-352) were cloned into pET28a as N-terminal 6-His-tagged constructs. A constitutively active mutant MKK6-GST fusion construct (GST-MKK6 Glu) was a gift from Peiqing Sun (Scripps, La Jolla, Calif.). A pET28a construct of λ-phosphatase was a gift from Dima Klenchin (University of Wisconsin, Madison, Wis.). All constructs were confirmed by sequencing and transformed into Rosetta2 (DE3) E. coli (EMD Millipore, Billerica, Mass.) and expressed as soluble proteins that were purified using the specific affinity tags followed by gel filtration chromatography. […] All buffers used during purification (lysis, column, and storage) of MAPK13 required addition of 10% glycerol and 1-5 mM reducing agent (either β-mercaptoethanol or DTT) to prevent precipitation of the recombinant protein. The final purified MAPK13 for crystallization was stored in buffer containing 20 mM Hepes pH 7.5, 150 mM NaCl, 10% glycerol, and 1 mM DTT.
MAPK13/small molecule binding assay. Kinetics of MAPK13 binding to small molecules was assessed using bio-layer interferometry with an Octet (ForteBio, Menlo Park, Calif.). Super-streptavidin-coated biosensors from ForteBio were used to capture biotinylated MAPK13 onto the surface of the sensor. After reaching baseline, sensors were moved to association step containing 2500, 1250, 625, 312.5, or 156.3 nM inhibitor for 300 s and then dissociated for 300 s. Curves were corrected by a double-referencing technique using both biotin-coated pins dipped into the experimental wells and a buffer-only reference. The running buffer consisted of 10 mM Hepes pH 7.5, 150 mM NaCl, 0.05% Tween, and 5% DMSO. Half-lives were calculated from dissociation constants determined from global kinetic analysis.

[4] = system: CLCA1; assay: CLCA1 levels in IL-13-treated hTECs (qPCR); type: cell-based, human; settings: IL-13 50 ng/ml, up to 21 d air-liquid interface
[5] = system: MUC5AC; assay: Doxycycline-induced MUC5AC mRNA and protein in NCI-H292-rtTA-hCLCA1 cells; type: cell-based, human; settings: doxycycline 7.5 μg/ml for 18 h
[6] = upper part of Table 4, 16-point inhibitor concentration-response curves, unit inferred, read-out: IC50 (IC50 values for MAPK13 inhibition)
[7] = primary-culture human airway epithelial cells
[8] = lower part of Table 4, IMAP-based biochemical assay, read-out: MAPK13 IC50

T1 sequence (O15264 whole entry): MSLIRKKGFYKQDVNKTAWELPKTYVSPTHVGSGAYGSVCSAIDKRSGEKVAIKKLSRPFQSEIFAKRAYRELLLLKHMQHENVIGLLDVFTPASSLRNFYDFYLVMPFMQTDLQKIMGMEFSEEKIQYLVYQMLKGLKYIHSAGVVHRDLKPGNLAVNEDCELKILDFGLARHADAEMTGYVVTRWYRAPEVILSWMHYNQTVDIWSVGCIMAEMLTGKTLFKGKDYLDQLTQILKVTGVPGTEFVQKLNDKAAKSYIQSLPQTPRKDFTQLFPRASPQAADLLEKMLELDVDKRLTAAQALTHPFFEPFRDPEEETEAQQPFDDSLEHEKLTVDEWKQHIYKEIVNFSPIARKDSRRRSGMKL

SMILES	MAPK13 inhibitory activity (in words) [1]	IC50 [1, 6] [nM]	IC50 [1, 8] [nM]	t1/2 [3] [min]	also measured
Cc1ccc(-n2nc(C(C)(C)C)cc2NC(=O)Nc2ccc(Oc3ccncc3)cc2)cc1 [Compound 62]	most potent MAPK13 inhibition	280	–	–	IC50 ([2]; IL-13-induced, primary-culture human airway epithelial cells, read-out: IC50 for blockade of mucus production): < 10 nM; IL-13-induced MUC5AC production [2, 7]: markedly suppressed
Cc1ccc(-n2nc(C(C)(C)C)cc2NC(=O)Nc2ncc(CCN3CCOCC3)s2)cc1 [Analog 89, 1-[5-tert-butyl-2-(p-tolyl)pyrazol-3-yl]-3-[5-(2-morpholinoethyl)thiazol-2-yl]urea]	–	–	27.5	20	–
Cc1cn(-c2cccc(C(=O)Nc3ccc(Oc4ccncc4)cc3)c2)cn1 [Analog 117, 3-(4-methylimidazol-1-yl)-N-[4-(4-pyridyloxy)phenyl]benzamide]	–	15800	10200	0.0467	MAPK13 Inhibition Biochemical Potency ([1]; class symbols +++, ++, +, ~, legend not given): ~; slow-off binding kinetics [3]: did not
Cn1c(NC[C@@H](N)Cc2ccccc2)nc(-c2ccncc2)c(-c2ccc3ccccc3c2)c1=O [AMG-548, reference compound]	weak inhibitory activity	–	–	–	–
O=C(Nc1ccc(Oc2ccncc2)cc1)c1ccnc(N2CCOCC2)c1 [Analog 124, 2-morpholino-N-[4-(4-pyridyloxy)phenyl]pyridine-4-carboxamide]	–	–	–	0.02	–
Cc1ccc(-n2nc(C(C)(C)C)cc2NC(=O)Nc2ccc(OCCN3CCOCC3)c3ccccc23)cc1 [BIRB-796, BIRB-796 (Doramapimod)]	–	–	–	–	corresponding CLCA1 levels / CLCA1 gene expression [4]: without affecting; IL-13-induced MUC5AC gene expression ([2]; hTECs, IL-13 50 ng/ml, up to 21 d air-liquid interface): markedly suppressed; doxycyline-induced MUC5AC mRNA and protein production [5]: inhibited
Cc1ccc(-n2nc(C(C)(C)C)cc2NC(=O)Nc2ccc3c(c2)CN(C(=O)C2CCOCC2)C3)cc1 [Analog 115, 1-[5-tert-butyl-2-(p-tolyl)pyrazol-3-yl]-3-[2-(tetrahydropyran-4-carbonyl)isoindolin-5-yl]urea]	–	–	8650	3.4	Relative Dissociation kinetics ([3]; BLI): slow
Cn1nc(C(C)(C)C)cc1NC(=O)Nc1ccc(Oc2ccncc2)cc1 [Compound 61]	most potent MAPK13 inhibition	620	82.7	1.85	IL-13-induced MUC5AC production [2, 7]: markedly suppressed; increase in complex half-life ([3]; DFG-out compound 61 compared with DFG-in compound 117 (FIG. 6E)): 40 fold; slow-off binding kinetics [3]: exhibited slow-off binding kinetics
